≈ marks a conversion by molar mass, not a printed value.
Experiments:
[1] = tested on: Streptomyces fradiae NRRL 11271; test: Antibiotic sensitivity (sensitivity discs), NRRL 11271; format: cell-based; conditions: discs: chloramphenicol 30 μg, erythromycin 15 μg, cephaloridine 30 μg, lincomycin 2 μg, polymyxin B 300 units, streptomycin 10 μg, tetracycline 30 μg, vancomycin 30 μg; also: key: -: resistance (no zones of inhibition); +: sensitivity (zones of inhibition); trace of sensitivity
Source text: (§1) ^a Determined by using sensitivity discs padded onto seededagar

[2] = tested on: Streptomyces fradiae E2724.1; test: Antibiotic sensitivity (sensitivity discs), E2724.1; format: cell-based; conditions: discs: chloramphenicol 30 μg, erythromycin 15 μg, cephaloridine 30 μg, lincomycin 2 μg, polymyxin B 300 units, streptomycin 10 μg, tetracycline 30 μg, vancomycin 30 μg; also: key: -: resistance (no zones of inhibition); +: sensitivity (zones of inhibition); trace of sensitivity
Source text: as §1

[3] = tested on: Mycoplasma hyopneumoniae; test: MIC, standard agar-dilution assay, Mycoplasma hyopneumoniae; format: cell-based; conditions: Mesomycoplasma hyopneumoniae
[4] = Electrometric titration of DMOT (pKa); format: physicochemical; conditions: 66% aqueous dimethylformamide
Source text: Electrometric titration of DMOT in 66% aqueous dimethylformamide indicates the presence of a titratable group with a pKa value of about 7.3.

[5] = tested on: Mycoplasma gallisepticum; test: MIC, standard agar-dilution assay, Mycoplasma gallisepticum; format: cell-based; conditions: Mycoplasmoides gallisepticum
[6] = tested on: Streptococcus pneumoniae Park I; test: MIC, standard agar-dilution assay, Streptococcus pneumoniae Park I; format: cell-based
[7] = tested on: Streptococcus pyogenes C203; test: In vivo activity against experimental bacterial infection in mice (ED50); conditions: C203, sc, subcutaneous, two doses, bacterial challenge 268 X LD50, effective dose to protect 50% of the test animals
Protocol: The DMOT compounds have shown in vivo antimicrobial activity against experimental bacterial infections. When two doses of test compound were administered to mice in experimental infections, the activity observed was measured as an ED50 value [effective dose in mg/kg to protect 50% of the test animals: see Warren Wick, et al., J. Bacteriol. 81, 233-235 (1961)].
^a Subcutaneous; mg/kg × 2

[8] = tested on: Pasteurella multocida; test: MIC, standard agar-dilution assay, Pasteurella multocida; format: cell-based
[9] = tested on: Streptococcus pyogenes C203; test: MIC, standard agar-dilution assay, Streptococcus pyogenes C203; format: cell-based
[10] = tested on: Staphylococcus aureus 3055; test: MIC, standard agar-dilution assay, Staphylococcus aureus 3055; format: cell-based
[11] = Solubility; format: physicochemical; conditions: free base
[12] = tested on: Streptococcus sp. (Group D) 282; test: MIC, standard agar-dilution assay, Streptococcus sp. (Group D) 282; format: cell-based
[13] = tested on: Pasteurella hemolytica; test: MIC, standard agar-dilution assay, Pasteurella hemolytica; format: cell-based
[14] = tested on: Mycoplasma hyorhinis; test: MIC, standard agar-dilution assay, Mycoplasma hyorhinis; format: cell-based
[15] = tested on: gram-positive microorganisms and Mycoplasma species; test: Growth inhibition of pathogenic organisms (general statement); format: cell-based

Compound: O=C(Cc1cccs1)N[C@@H]1C(=O)N2C(C(=O)[O-])=C(C[n+]3ccccc3)CS[C@H]12 [Cephaloridine]
- Antibiotic sensitivity, NRRL 11271 [1]: +
- Antibiotic sensitivity, E2724.1 [2]: +

Compound: O=C(N[C@H](CO)[C@H](O)c1ccc([N+](=O)[O-])cc1)C(Cl)Cl [Chloramphenicol]
- Antibiotic sensitivity, NRRL 11271 [1]: +
- Antibiotic sensitivity, E2724.1 [2]: +

Compound: CCC1OC(=O)CC(O)C(C)C(OC2OC(C)C(OC3CC(C)(O)C(O)C(C)O3)C(N(C)C)C2O)C(CC=O)CC(C)C(=O)C=CC(C)=CC1C (stereo not shown) [DMOT, 23-de(mycinosyloxy)tylosin]
- MIC [3]: 0.39 µg/mL (≈ 0.537 µM)
- pKa [4]: ~7.3
- MIC [5]: 0.097 µg/mL (≈ 0.134 µM)
- MIC [6]: 0.13 µg/mL (≈ 0.179 µM)
- ED50 [7]: 6.3 mg/kg
- MIC [8]: 6.25 µg/mL (≈ 8.61 µM)
- MIC [9]: 0.25 µg/mL (≈ 0.344 µM)
- MIC [10]: 1 µg/mL (≈ 1.38 µM)
- solubility in polar organic solvents ([11]; most polar organic solvents, such as acetone, methanol, ethanol, dimethylformamide, chloroform and dimethyl sulfoxide): soluble
- solubility in water ([11]; water): sparingly soluble
- MIC [12]: 0.5 µg/mL (≈ 0.689 µM)
- MIC [13]: 25 µg/mL (≈ 34.4 µM)
- MIC [14]: 0.78 µg/mL (≈ 1.07 µM)
- antibacterial activity (in words) [15]: especially active against gram-positive microorganisms and Mycoplasma species

Compound: CC[C@H]1OC(=O)[C@H](C)[C@@H](O[C@H]2C[C@@](C)(OC)[C@@H](O)[C@H](C)O2)[C@H](C)[C@@H](O[C@@H]2O[C@H](C)C[C@H](N(C)C)[C@H]2O)[C@](C)(O)C[C@@H](C)C(=O)[C@H](C)[C@@H](O)[C@]1(C)O [Erythromycin]
- Antibiotic sensitivity, NRRL 11271 [1]: +

Compound: CCC[C@@H]1C[C@@H](C(=O)N[C@@H]([C@H]2O[C@H](SC)[C@H](O)[C@@H](O)[C@H]2O)[C@@H](C)O)N(C)C1 [Lincomycin]
- Antibiotic sensitivity, NRRL 11271 [1]: -
- Antibiotic sensitivity, E2724.1 [2]: -

Compound: [H]/N=C(/N)N[C@H]1[C@H](O)[C@@H](O)[C@H](O[C@@H]2O[C@@H](C)[C@](O)(C=O)[C@H]2O[C@@H]2O[C@@H](CO)[C@H](O)[C@@H](O)[C@@H]2NC)[C@@H](N/C(N)=N\[H])[C@@H]1O [Streptomycin]
- Antibiotic sensitivity, NRRL 11271 [1]: +
- Antibiotic sensitivity, E2724.1 [2]: +

Compound: CN(C)[C@@H]1C(O)=C(C(N)=O)C(=O)[C@@]2(O)C(O)=C3C(=O)c4c(O)cccc4[C@@](C)(O)[C@H]3C[C@@H]12 [Tetracycline]
- Antibiotic sensitivity, NRRL 11271 [1]: +
- Antibiotic sensitivity, E2724.1 [2]: +

Compound: CN[C@H](CC(C)C)C(=O)N[C@H]1C(=O)N[C@@H](CC(N)=O)C(=O)N[C@H]2C(=O)N[C@H]3C(=O)N[C@H](C(=O)N[C@H](C(=O)O)c4cc(O)cc(O)c4-c4cc3ccc4O)[C@H](O)c3ccc(c(Cl)c3)Oc3cc2cc(c3O[C@@H]2O[C@H](CO)[C@@H](O)[C@H](O)[C@H]2O[C@H]2C[C@](C)(N)[C@H](O)[C@H](C)O2)Oc2ccc(cc2Cl)[C@H]1O [Vancomycin]
- Antibiotic sensitivity, NRRL 11271 [1]: +
- Antibiotic sensitivity, E2724.1 [2]: +

Compound: CCC1OC(=O)CC(O)C(C)C(OC2OC(C)C(OC3CC(C)(O)C(O)C(C)O3)C(N(C)C)C2O)C(CCO)CC(C)C(=O)C=CC(C)=CC1C (stereo not shown) [dihydro-DMOT, 20-dihydro-23-de(mycinosyloxy)tylosin]
- antibacterial activity (in words) [15]: especially active against gram-positive microorganisms and Mycoplasma species
